1 compound from PMC8103899, “Allyl Isothiocyanate: A TAS2R38 Receptor-Dependent Immune Modulator at the Interface Between Personalized Medicine and Nutrition” (Frontiers in Immunology, 2021) can be followed below.

Structures are written as SMILES.

The subject of one series is IL-1β. The experiment in a line: IL-1β release of LPS stimulated PBMC (ELISA). As to conditions: LPS activated PBMC. It counts as cell-based, human. The method, then:
(§1) PBMC (1x10^6/mL) cultured in RPMI 1640 medium supplemented with 10% heat-inactivated fetal calf serum, 2 mM L-glutamine, 100 U/ml penicillin/streptomycin were stimulated with 0.5 ng/ml CD3/CD28 MAbs and exposed to the test compounds. After 24 h, supernatants were collected and stored at -80°C until analysis using the human MACSplex cytokine 12-kit (Miltenyi Biotec GmbH, Bergisch Gladbach, Germany) according to manufacturer’s protocol to quantify cytokine secretion. Supernatants were also used for photometric quantification by the human TNF-alpha or IL-1β ELISA Ready-Set-Go kit from eBIoscience (Frankfurt, Germany) according to the manufacturer’s instructions.
Figure 5 In bacterial LPS stimulated PBMC, AITC triggers MAPK activation and TNF-α inhibition in dependence of the TAS2R38 genotype. PBMC were exposed to AITC or 0.01% DMSO (SC) together with 100 pg/mL LPS. (A) Representative immunoblots are given. Densitometric analysis was done to quantify the immunoblots using Quantity One software (Bio-Rad, Munich, Germany) and normalized against β-actin, which was used as loading control. (B, C) Cytokine secretion at 3 and 24 h was analyzed using ELISA kits. […] Results were calculated relative to the corresponding solvent control (SC, 0.01% DMSO). Significance of difference was determined compared to the respective SC by one-way ANOVA, *p < 0.05, **p < 0.01.
For orientation: An ELISA detects its analyte on a solid surface through an enzyme-linked reagent.

Series [1] concerns TNF-α, IL-1β, IL-2, IL-6, IL17-A, IL-10. The experiment in a line: Cytokine secretion of CD3/CD28 mAbs stimulated PBMC (MACSplex / ELISA). Type of series: cell-based, human. The method, then:
as §1
Figure 6 In […] PBMC, AITC triggers MAPK activation as well as TNF-α release in dependence of the TAS2R38 genotype. PBMC were exposed to AITC or 0.01% DMSO (SC) together with 0.5 ng/mL CD3/CD28 MAbs for 24h (A, B). Cytokine secretion was analyzed using the human MACSplex cytokine 12-kit or ELISA kits. Results are mean values + SD and given as fold of the solvent control. Significance of difference was determined compared to the respective SC as determined by one-way ANOVA, *p < 0.05, **p < 0.01.

Series [2] can be described thus: Human food intervention: AITC metabolite plasma levels after mustard intake (LC-ESI-MS/MS). Type of series: in vivo. As to conditions: single intake of an AITC containing food product. As to the method:
AITC metabolite quantification was carried out in blood plasma samples derived from an intervention study at the University Medical Center in Freiburg, Germany. Samples were from 4 healthy young adults (3 females, 1 male, aged between 30-40 years) having a normal BMI, and were non-smokers. Each subject consumed one time 10 g of a commercially available mustard preparation ([…] Munich, Germany) containing 24.74 ± 1.76 μmol/g fresh weight preformed AITC on an empty stomach with optional consumption of white bread. The intervention was preceded by a 48 h wash-out phase consisting of a glucosinolate/ITC-free diet. After 30 min and optionally 60 min, blood was collected by venipuncture in serum tubes and centrifuged at 2000g for 10 min, 4°C to obtain serum. Subsequently, TFA was added and the samples frozen at -80°C. The preparation of serum samples (300 μL serum and 100 μL TFA) was conducted as described by Kühn et al. ([37]). The frozen samples were thawed, vortexed (1 min) and centrifuged (4 °C, 10 min, 20.854 x g). The supernatant was transferred to SPE cartridges. Prior to transferring, SPE cartridges were conditioned with acetonitrile (ACN, 3 mL) and equilibrated with water (3 mL). After sample application, the cartridges were washed with formic acid (FA, 3 mL, 0.1% in water) and the metabolites were eluted with FA (3 mL, 0.1% in ACN:water, 90:10, v/v). […] The samples were re-dissolved in 100 μL FA (0.1% in ACN:water, 90:10, v/v). Sample aliquots of 5 μL were injected into the LC-ESI-MS/MS system. LC-ESI-MS/MS analysis was performed on an API4000 triple quadrupole mass spectrometer (AB Sciex Germany GmbH, Darmstadt, Germany) equipped with an Agilent 1200 LC system (Agilent Technologies Deutschland GmbH & Co. KG, Waldbronn, Germany). For data acquisition and processing the software Analyst 1.6.1 (AB Sciex Germany GmbH, Darmstadt, Germany) was used. […] AITC-CysGly; AITC-Cys; AITC-NAC) was conducted according to Platz et al. ([38]) with minor modifications. The separation was performed on a Kinetex C18 column (Phenomenex, 5 μm, 100 Å, 150 x 2.1 mm). The autosampler operated at 4°C and the set temperature for the oven was 20°C. A constant flow of 300 μL/min was used for the mobile phase which consisted of 0.1% FA in water (A) and 0.1% FA in ACN (B). […] In order to equilibrate the column, A was increased to 90% and held for 5 min. The relevant MS parameters include an entrance potential of -10 V, a desolvation gas temperature of 450°C, ion spray potential of -4.5 kV, gas 1 and gas 2 at 46 psi and a curtain gas pressure at 10 psi.

Series [3] addresses TAS2R38 receptor (Homo sapiens, UniProt P59533, A262V). In words: Calcium flux assay in human PBMC (flow cytometry, Fluo-4 AM). Conditions: AVI/AVI, 100 µM AITC. (In general: Calcium assays in cells follow changes in intracellular calcium, usually with a dye or a luminescent sensor.)
Procedure: (§2) PBMC staining for calcium measurement was performed as described before ([10]). Each sample containing 0.5 x10^6 cells was analyzed for 800 sec using a FACSCalibur™ (BD Biosciences, Heidelberg, Germany) flow cytometer. After 60 sec, cells were exposed to the test compounds and then measured for another 740 sec. Data were analyzed using FlowJo software (Ashland, Oregon, USA).
(§3) Flow cytometry based measurement of calcium flux was detected in monocytes (A–C) and lymphocytes (D–E) probed with Fluor-4 AM (FEM:516 nm) after treatment with compounds. Baseline fluorescence was recorded for 60 sec before exposure. After exposure, fluorescence was measured for another 740 sec. Calcium response was calculated as the ratio of the maximum peak post stimulation to basal level using FlowJo software. Dots represent mean values ± SD, n ≥ 4 of cells from AVI/AVI (A, D), PAV/AVI (B, E) and PAV/PAV (C, F) subjects. […] Significance of difference was determined using paired t-test compared to the respective SC, *p < 0.05, **p < 0.01.
(§4) FACS based measurement of calcium flux was then detected in the monocyte subpopulation probed with Fluor-4 AM (FEM:516 nm). Baseline fluorescence was recorded for 60 sec. After compound exposure, fluorescence was measured for another 740 sec. Calcium response was calculated as the ratio of the maximum peak post stimulation to basal level using FlowJo software. Dots represent mean values ± SD, n ≥ 3. Significance of difference was determined using the paired t-test compared to the respective solvent control (SC, 0.1% DMSO), *p < 0.05, **p < 0.01.
The subject of series [4] is TAS2R38 receptor. The description is as above. Conditions: PAV/AVI.
Procedure: as §2, §3, §4

TAS2R38 receptor (Homo sapiens, UniProt P59533, A262V), sequence (P59533 whole entry A262V): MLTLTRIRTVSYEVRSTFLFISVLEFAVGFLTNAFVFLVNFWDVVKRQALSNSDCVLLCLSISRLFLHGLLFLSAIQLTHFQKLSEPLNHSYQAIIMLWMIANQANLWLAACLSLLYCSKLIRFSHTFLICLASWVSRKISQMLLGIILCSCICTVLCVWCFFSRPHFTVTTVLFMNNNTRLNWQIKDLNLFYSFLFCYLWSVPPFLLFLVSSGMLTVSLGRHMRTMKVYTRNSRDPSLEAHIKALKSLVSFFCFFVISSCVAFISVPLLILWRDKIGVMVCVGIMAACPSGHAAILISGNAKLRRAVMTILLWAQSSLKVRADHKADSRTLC

Regarding `C=CCN=C=S` [AITC, allyl isothiocyanate], the “release of IL-1β” value in the series on IL-1β is “suppressed in both AVI/AVI and PAV/PAV groups”. Further, in series [1] (CD3/CD28 mAbs stimulated PBMC), the “modulation of IL-2, IL-6, IL17-A and IL-10” value is given as “not clearly genotype dependent”. Besides, the “effect on TNF-α” value in series [1] (CD3/CD28 mAbs stimulated cells, AVI/AVI group, 24h) is “No effect”. Further, the TNF-α secretion result in series [1] (CD3/CD28 mAbs stimulated cells, PAV/PAV, 24h) is on record as “Similar, but less strong effects”. Besides, the IL-1β entry in series [1] (CD3/CD28 mAbs stimulated, PAV/PAV vs. AVI/AVI cells) was “differential inhibition”. In addition, in series [2], the AITC plasma levels entry is “around one”. For the same compound, the calcium influx came to 24% on TAS2R38 receptor [3] (lymphocytes) and 21% with TAS2R38 receptor [4] (lymphocytes, 100 µM AITC). Further, the “calcium flux (statistically significant)” value at TAS2R38 receptor [3] (monocytes) was found to be 20%; in the series with TAS2R38 receptor [4] (monocytes, 10 µM AITC) it was 18%.
